Measurements published in patent US11980188B2, “Spiro cyclohexanedione derivates as herbicides” (SYNGENTA PARTICIPATIONS AG, priority 2018, dated 2024).

Legend:
Test in all cases: Glasshouse herbicide test, pre- and post-emergence, percentage damage
Type in all cases: in vivo
Setaria faberi (SETFA) = details: 250 g/h, evaluated after 13 days, percentage damage on five point scale; for SETFA POST: post-emergence; for SETFA PRE: pre-emergence
In short: (§1)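 Potted plants in standard soil; pre-emergence spray after 1 d of cultivation, post-emergence after 8 d. Dose 250 g/h from an acetone/water (50:50), 0.5% Tween 20 formulation. % damage at 13 d, scored 1–5.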

[1] = tested on: Echinochloa crus-galli (ECHCG); details: 250 g/h, evaluated after 13 days, percentage damage on five point scale; for ECHCG POST: post-emergence; for ECHCG PRE: pre-emergence
In short: as §1

Avena fatua (AVEFA) = details: 250 g/h, evaluated after 13 days, percentage damage on five point scale; for AVEFA POST: post-emergence; for AVEFA PRE: pre-emergence
In short: as §1

Lolium perenne (LOLPE) = details: 250 g/h, evaluated after 13 days, percentage damage on five point scale; for LOLPE POST: post-emergence; for LOLPE PRE: pre-emergence
In short: as §1

[2] = tested on: Alopecurus myosuroides (ALOMY); details: 250 g/h, evaluated after 13 days, percentage damage on five point scale; for ALOMY POST: post-emergence; for ALOMY PRE: pre-emergence
In short: as §1

Row | SMILES | SETFA POST (Setaria faberi (SETFA)) | SETFA PRE (Setaria faberi (SETFA)) | ECHCG POST [1] | ECHCG PRE [1] | AVEFA POST (Avena fatua (AVEFA)) | AVEFA PRE (Avena fatua (AVEFA)) | LOLPE POST (Lolium perenne (LOLPE)) | LOLPE PRE (Lolium perenne (LOLPE)) | ALOMY POST [2] | ALOMY PRE [2]
1 | Cc1cc(-c2ncc(F)cn2)cc(C)c1C1C(=O)CC2(CCN(C(=O)C(C)(C)C)CC2)CC1=O [Compound A40] | 5 (5=80-100%) | 5 (5=80-100%) | 5 (5=80-100%) | 5 (5=80-100%) | 5 (5=80-100%) | 5 (5=80-100%) | 5 (5=80-100%) | 5 (5=80-100%) | 5 (5=80-100%) | 5 (5=80-100%)
2 | Cc1cc(-c2ncc(F)cn2)cc(C)c1C1C(=O)CC2(CCN(C(=O)NC(=O)c3ccccn3)CC2)CC1=O [Compound A41] | 5 (5=80-100%) | 5 (5=80-100%) | 5 (5=80-100%) | 4 (4=60-79%) | 5 (5=80-100%) | 3 (3=40-59%) | 5 (5=80-100%) | 3 (3=40-59%) | 5 (5=80-100%) | 3 (3=40-59%)
3 | CC(=O)N1CCC2(CC1)CC(=O)C(c1c(C)cc(C)cc1C)C(=O)C2 [Compound A42] | 5 (5=80-100%) | 5 (5=80-100%) | 1 (1=0-19%) | 3 (3=40-59%) | 5 (5=80-100%) | 5 (5=80-100%) | 5 (5=80-100%) | 5 (5=80-100%) | 5 (5=80-100%) | 5 (5=80-100%)
4 | Cc1cc(-c2ncc(F)cn2)cc(C)c1C1C(=O)CC2(CCN(C(=O)CC#N)CC2)CC1=O [Compound A43] | 5 (5=80-100%) | 5 (5=80-100%) | 5 (5=80-100%) | 5 (5=80-100%) | 5 (5=80-100%) | 5 (5=80-100%) | 5 (5=80-100%) | 5 (5=80-100%) | 5 (5=80-100%) | 5 (5=80-100%)
5 | Cc1cc(-c2ccc(C#N)cn2)cc(C)c1C1C(=O)CC2(CCN(C(=O)CC#N)CC2)CC1=O [Compound A44] | 5 (5=80-100%) | 5 (5=80-100%) | 4 (4=60-79%) | 5 (5=80-100%) | 5 (5=80-100%) | 3 (3=40-59%) | 5 (5=80-100%) | 3 (3=40-59%) | 5 (5=80-100%) | 5 (5=80-100%)
6 | CC(=O)N1CCC2(CC1)CC(=O)C(c1c(C)cc(-c3ccc(Cl)cn3)cc1C)C(=O)C2 [Compound A45] | 5 (5=80-100%) | 5 (5=80-100%) | 5 (5=80-100%) | 5 (5=80-100%) | 5 (5=80-100%) | 5 (5=80-100%) | 5 (5=80-100%) | 5 (5=80-100%) | 5 (5=80-100%) | 5 (5=80-100%)
7 | CC(=O)N1CCC2(CC1)CC(=O)C(c1c(C)cc(-c3ccc(F)cn3)cc1C)C(=O)C2 [Compound A46] | 5 (5=80-100%) | 5 (5=80-100%) | 5 (5=80-100%) | 5 (5=80-100%) | 5 (5=80-100%) | 5 (5=80-100%) | 5 (5=80-100%) | 5 (5=80-100%) | 5 (5=80-100%) | 5 (5=80-100%)
8 | CC(=O)N1CCC2(CC1)CC(=O)C(c1c(C)cc(-n3cc(F)cn3)cc1C)C(=O)C2 [Compound A47] | 5 (5=80-100%) | 4 (4=60-79%) | 1 (1=0-19%) | 3 (3=40-59%) | 5 (5=80-100%) | 4 (4=60-79%) | 5 (5=80-100%) | 4 (4=60-79%) | 5 (5=80-100%) | 2 (2=20-39%)
9 | CC(=O)N1CCC2(CC1)CC(=O)C(c1c(C)cc(-c3ncc(F)cc3F)cc1C)C(=O)C2 [Compound A48] | 5 (5=80-100%) | 5 (5=80-100%) | 5 (5=80-100%) | 5 (5=80-100%) | 5 (5=80-100%) | 5 (5=80-100%) | 5 (5=80-100%) | 5 (5=80-100%) | 5 (5=80-100%) | 5 (5=80-100%)
10 | CC(=O)N1CCC2(CC1)CC(=O)C(c1c(C)cc(-c3ccc(Cl)cc3)cc1C)C(=O)C2 [Compound A49] | 5 (5=80-100%) | 5 (5=80-100%) | 5 (5=80-100%) | 5 (5=80-100%) | 5 (5=80-100%) | 5 (5=80-100%) | 5 (5=80-100%) | 5 (5=80-100%) | 5 (5=80-100%) | 5 (5=80-100%)
11 | CC(=O)N1CCC2(CC1)CC(=O)C(c1c(C)cc(-c3ncc(Cl)cc3F)cc1C)C(=O)C2 [Compound A50] | 5 (5=80-100%) | 5 (5=80-100%) | 5 (5=80-100%) | 5 (5=80-100%) | 5 (5=80-100%) | 5 (5=80-100%) | 5 (5=80-100%) | 5 (5=80-100%) | 5 (5=80-100%) | 5 (5=80-100%)
12 | CC(=O)N1CCC2(CC1)CC(=O)C(c1c(C)cc(-c3ncc(Cl)cn3)cc1C)C(=O)C2 [Compound A51] | 5 (5=80-100%) | 5 (5=80-100%) | 5 (5=80-100%) | 5 (5=80-100%) | 5 (5=80-100%) | 5 (5=80-100%) | 5 (5=80-100%) | 5 (5=80-100%) | 5 (5=80-100%) | 5 (5=80-100%)
13 | CC(=O)N1CCC2(CC1)CC(=O)C(c1c(C)cc(-c3ncc(C#N)cn3)cc1C)C(=O)C2 [Compound A52] | 5 (5=80-100%) | 5 (5=80-100%) | 5 (5=80-100%) | 5 (5=80-100%) | 5 (5=80-100%) | 5 (5=80-100%) | 5 (5=80-100%) | 5 (5=80-100%) | 5 (5=80-100%) | 5 (5=80-100%)
14 | CCS(=O)(=O)N1CCC2(CC1)CC(=O)C(c1c(C)cc(-c3ccc(F)cc3)cc1C)C(=O)C2 [Compound A53] | 5 (5=80-100%) | 5 (5=80-100%) | 3 (3=40-59%) | 5 (5=80-100%) | 5 (5=80-100%) | 4 (4=60-79%) | 5 (5=80-100%) | 5 (5=80-100%) | – | 5 (5=80-100%)
15 | Cc1cc(-c2ccc(F)cc2)cc(C)c1C1C(=O)CC2(CCN(C(=O)c3ccccc3)CC2)CC1=O [Compound A54] | 5 (5=80-100%) | 5 (5=80-100%) | 5 (5=80-100%) | 5 (5=80-100%) | 5 (5=80-100%) | 5 (5=80-100%) | 5 (5=80-100%) | 5 (5=80-100%) | – | 5 (5=80-100%)
16 | Cc1cc(-c2ccc(F)cc2)cc(C)c1C1C(=O)CC2(CCN(C(=O)c3ccccn3)CC2)CC1=O [Compound A55] | 5 (5=80-100%) | 5 (5=80-100%) | 5 (5=80-100%) | 5 (5=80-100%) | 5 (5=80-100%) | 5 (5=80-100%) | 5 (5=80-100%) | 5 (5=80-100%) | – | 5 (5=80-100%)
17 | COCC(=O)N1CCC2(CC1)CC(=O)C(c1c(C)cc(-c3ccc(F)cc3)cc1C)C(=O)C2 [Compound A56] | 5 (5=80-100%) | 5 (5=80-100%) | 5 (5=80-100%) | 5 (5=80-100%) | 5 (5=80-100%) | 5 (5=80-100%) | 5 (5=80-100%) | 5 (5=80-100%) | – | 5 (5=80-100%)
18 | Cc1cc(-c2ccc(F)cc2)cc(C)c1C1C(=O)CC2(CCN(C(=O)NC(=O)C(C)(C)C)CC2)CC1=O [Compound A58] | 5 (5=80-100%) | 5 (5=80-100%) | 5 (5=80-100%) | 5 (5=80-100%) | 5 (5=80-100%) | 4 (4=60-79%) | 5 (5=80-100%) | 5 (5=80-100%) | – | 5 (5=80-100%)
19 | Cc1cc(-c2ccc(F)cc2)cc(C)c1C1C(=O)CC2(CCN(C(=O)C3CC3)CC2)CC1=O [Compound A59] | 5 (5=80-100%) | 5 (5=80-100%) | 5 (5=80-100%) | 5 (5=80-100%) | 5 (5=80-100%) | 5 (5=80-100%) | 5 (5=80-100%) | 5 (5=80-100%) | – | 5 (5=80-100%)
20 | Cc1cc(-c2ccc(F)cc2)cc(C)c1C1C(=O)CC2(CCN(C(=O)C(F)F)CC2)CC1=O [Compound A60] | 5 (5=80-100%) | 5 (5=80-100%) | 5 (5=80-100%) | 5 (5=80-100%) | 5 (5=80-100%) | 5 (5=80-100%) | 5 (5=80-100%) | 5 (5=80-100%) | – | 5 (5=80-100%)
